Assay results reported in ChEMBL document CHEMBL1201862, “PubChem BioAssay data set” (2004).
The source made the active and inactive calls.

Columns and labels:
[1] = target: T1, Corticotropin-releasing factor receptor 2/Corticotropin-releasing factor-binding protein (Homo sapiens, UniProt P24387+Q13324); experiment: Dose Response confirmation of uHTS hits for small molecule antagonists of the CRF-binding protein and CRF-R2 receptor complex.; format: functional; conditions: read-out: IC50_Mean
T1 sequence (Q13324 whole entry): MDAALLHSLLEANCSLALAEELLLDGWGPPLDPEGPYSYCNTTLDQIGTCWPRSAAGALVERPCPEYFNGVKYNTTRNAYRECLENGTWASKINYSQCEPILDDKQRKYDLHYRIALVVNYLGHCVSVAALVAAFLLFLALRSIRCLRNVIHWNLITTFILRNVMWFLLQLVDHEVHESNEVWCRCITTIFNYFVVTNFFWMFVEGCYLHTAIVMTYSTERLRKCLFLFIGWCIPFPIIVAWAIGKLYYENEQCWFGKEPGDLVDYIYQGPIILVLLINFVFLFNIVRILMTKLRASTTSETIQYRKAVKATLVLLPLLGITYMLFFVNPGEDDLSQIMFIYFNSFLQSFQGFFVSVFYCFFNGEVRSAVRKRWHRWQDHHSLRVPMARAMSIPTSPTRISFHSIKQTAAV
T1 sequence (P24387 whole entry): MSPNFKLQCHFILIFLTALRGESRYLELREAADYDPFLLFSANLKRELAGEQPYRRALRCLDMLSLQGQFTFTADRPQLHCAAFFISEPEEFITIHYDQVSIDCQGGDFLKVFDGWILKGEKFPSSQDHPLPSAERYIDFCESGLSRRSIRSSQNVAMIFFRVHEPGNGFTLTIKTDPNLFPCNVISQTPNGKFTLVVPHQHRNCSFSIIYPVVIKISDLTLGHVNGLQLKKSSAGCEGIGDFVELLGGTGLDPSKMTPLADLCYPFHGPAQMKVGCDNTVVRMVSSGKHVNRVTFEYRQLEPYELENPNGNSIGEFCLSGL

[2] = target: T1, Corticotropin-releasing factor receptor 2/Corticotropin-releasing factor-binding protein; experiment: activators of CRF receptor 2 with binding protein – uHTS hits, confirmation (AID 602473); format: functional; conditions: read-out: EC50_Mean
[3] = target: T2, Calpain-2 catalytic subunit (Sus scrofa, UniProt P43367); experiment: pig calpain II inhibitor potency, dose response, biochemical, fluorogenic peptide substrate (AID 1420); format: functional
T2 sequence (P43367 whole entry): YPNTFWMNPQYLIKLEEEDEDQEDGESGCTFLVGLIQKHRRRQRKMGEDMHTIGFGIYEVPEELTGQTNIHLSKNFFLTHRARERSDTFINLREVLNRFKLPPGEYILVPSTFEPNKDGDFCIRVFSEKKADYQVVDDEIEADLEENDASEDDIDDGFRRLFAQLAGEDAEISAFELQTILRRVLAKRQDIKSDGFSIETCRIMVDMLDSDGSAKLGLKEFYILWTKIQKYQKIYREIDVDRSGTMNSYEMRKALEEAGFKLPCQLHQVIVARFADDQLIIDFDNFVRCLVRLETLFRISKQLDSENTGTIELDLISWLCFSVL

Fatty acid synthase [4] = target: T3, Fatty acid synthase (Homo sapiens, UniProt P49327); experiment: FAS thioesterase domain inhibitors, dose response, biochemical, endpoint fluorescence intensity, uHTS hits (AID 624327); format: functional;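 also: fluorescence from hydrolysis of an O-methyl fluorescein acyl ester substrate by the enzyme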
Fatty acid synthase [5] = target: T3, Fatty acid synthase; experiment: FAS thioesterase domain inhibitors, dose response, biochemical, kinetic fluorescence intensity (AID 624326); format: functional;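 also: rate of fluorescence rise from hydrolysis of a fluorogenic O-methyl fluorescein ester substrate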
[6] = Luminescence Cell-Based Dose Response HTS to Identify Activators of Luciferase Translation or Activity in H4 […] Cells. [Related pubchem assays: 1829 (Project Summary), 1814 (Primary HTS)]; format: functional
Large T antigen = Large T antigen (Simian virus 40, UniProt P03070); format: functional, Betapolyomavirus macacae;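 also: Confirmatory-stage PubChem screen for compounds that inhibit SV40 T antigen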
[7] = target: T4, Rac GTPase-activating protein 1 (Homo sapiens, UniProt Q9H0H5); experiment: MgcRacGAP GTPase-activating activity inhibitors, confirmation, biochemical, ADP Hunter fluorescence, primary and confirmatory (AID 624330); format: functional
T4 sequence (Q9H0H5 whole entry): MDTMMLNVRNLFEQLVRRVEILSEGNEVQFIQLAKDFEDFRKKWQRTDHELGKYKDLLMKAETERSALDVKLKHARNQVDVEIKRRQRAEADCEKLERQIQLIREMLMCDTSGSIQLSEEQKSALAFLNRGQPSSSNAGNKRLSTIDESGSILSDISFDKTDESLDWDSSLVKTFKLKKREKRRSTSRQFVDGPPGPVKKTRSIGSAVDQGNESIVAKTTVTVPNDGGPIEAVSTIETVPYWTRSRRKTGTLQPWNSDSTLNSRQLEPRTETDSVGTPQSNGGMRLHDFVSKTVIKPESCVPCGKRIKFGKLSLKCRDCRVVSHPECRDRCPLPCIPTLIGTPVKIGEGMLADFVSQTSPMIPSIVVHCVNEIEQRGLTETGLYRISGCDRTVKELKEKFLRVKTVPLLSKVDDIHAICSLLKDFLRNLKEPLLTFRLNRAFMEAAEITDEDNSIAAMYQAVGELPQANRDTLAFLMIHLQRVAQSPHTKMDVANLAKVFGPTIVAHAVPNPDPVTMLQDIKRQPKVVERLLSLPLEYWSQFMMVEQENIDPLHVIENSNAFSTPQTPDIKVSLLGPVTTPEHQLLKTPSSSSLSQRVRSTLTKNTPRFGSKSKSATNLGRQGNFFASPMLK

T3 sequence (P49327 whole entry, the tested form may be a part): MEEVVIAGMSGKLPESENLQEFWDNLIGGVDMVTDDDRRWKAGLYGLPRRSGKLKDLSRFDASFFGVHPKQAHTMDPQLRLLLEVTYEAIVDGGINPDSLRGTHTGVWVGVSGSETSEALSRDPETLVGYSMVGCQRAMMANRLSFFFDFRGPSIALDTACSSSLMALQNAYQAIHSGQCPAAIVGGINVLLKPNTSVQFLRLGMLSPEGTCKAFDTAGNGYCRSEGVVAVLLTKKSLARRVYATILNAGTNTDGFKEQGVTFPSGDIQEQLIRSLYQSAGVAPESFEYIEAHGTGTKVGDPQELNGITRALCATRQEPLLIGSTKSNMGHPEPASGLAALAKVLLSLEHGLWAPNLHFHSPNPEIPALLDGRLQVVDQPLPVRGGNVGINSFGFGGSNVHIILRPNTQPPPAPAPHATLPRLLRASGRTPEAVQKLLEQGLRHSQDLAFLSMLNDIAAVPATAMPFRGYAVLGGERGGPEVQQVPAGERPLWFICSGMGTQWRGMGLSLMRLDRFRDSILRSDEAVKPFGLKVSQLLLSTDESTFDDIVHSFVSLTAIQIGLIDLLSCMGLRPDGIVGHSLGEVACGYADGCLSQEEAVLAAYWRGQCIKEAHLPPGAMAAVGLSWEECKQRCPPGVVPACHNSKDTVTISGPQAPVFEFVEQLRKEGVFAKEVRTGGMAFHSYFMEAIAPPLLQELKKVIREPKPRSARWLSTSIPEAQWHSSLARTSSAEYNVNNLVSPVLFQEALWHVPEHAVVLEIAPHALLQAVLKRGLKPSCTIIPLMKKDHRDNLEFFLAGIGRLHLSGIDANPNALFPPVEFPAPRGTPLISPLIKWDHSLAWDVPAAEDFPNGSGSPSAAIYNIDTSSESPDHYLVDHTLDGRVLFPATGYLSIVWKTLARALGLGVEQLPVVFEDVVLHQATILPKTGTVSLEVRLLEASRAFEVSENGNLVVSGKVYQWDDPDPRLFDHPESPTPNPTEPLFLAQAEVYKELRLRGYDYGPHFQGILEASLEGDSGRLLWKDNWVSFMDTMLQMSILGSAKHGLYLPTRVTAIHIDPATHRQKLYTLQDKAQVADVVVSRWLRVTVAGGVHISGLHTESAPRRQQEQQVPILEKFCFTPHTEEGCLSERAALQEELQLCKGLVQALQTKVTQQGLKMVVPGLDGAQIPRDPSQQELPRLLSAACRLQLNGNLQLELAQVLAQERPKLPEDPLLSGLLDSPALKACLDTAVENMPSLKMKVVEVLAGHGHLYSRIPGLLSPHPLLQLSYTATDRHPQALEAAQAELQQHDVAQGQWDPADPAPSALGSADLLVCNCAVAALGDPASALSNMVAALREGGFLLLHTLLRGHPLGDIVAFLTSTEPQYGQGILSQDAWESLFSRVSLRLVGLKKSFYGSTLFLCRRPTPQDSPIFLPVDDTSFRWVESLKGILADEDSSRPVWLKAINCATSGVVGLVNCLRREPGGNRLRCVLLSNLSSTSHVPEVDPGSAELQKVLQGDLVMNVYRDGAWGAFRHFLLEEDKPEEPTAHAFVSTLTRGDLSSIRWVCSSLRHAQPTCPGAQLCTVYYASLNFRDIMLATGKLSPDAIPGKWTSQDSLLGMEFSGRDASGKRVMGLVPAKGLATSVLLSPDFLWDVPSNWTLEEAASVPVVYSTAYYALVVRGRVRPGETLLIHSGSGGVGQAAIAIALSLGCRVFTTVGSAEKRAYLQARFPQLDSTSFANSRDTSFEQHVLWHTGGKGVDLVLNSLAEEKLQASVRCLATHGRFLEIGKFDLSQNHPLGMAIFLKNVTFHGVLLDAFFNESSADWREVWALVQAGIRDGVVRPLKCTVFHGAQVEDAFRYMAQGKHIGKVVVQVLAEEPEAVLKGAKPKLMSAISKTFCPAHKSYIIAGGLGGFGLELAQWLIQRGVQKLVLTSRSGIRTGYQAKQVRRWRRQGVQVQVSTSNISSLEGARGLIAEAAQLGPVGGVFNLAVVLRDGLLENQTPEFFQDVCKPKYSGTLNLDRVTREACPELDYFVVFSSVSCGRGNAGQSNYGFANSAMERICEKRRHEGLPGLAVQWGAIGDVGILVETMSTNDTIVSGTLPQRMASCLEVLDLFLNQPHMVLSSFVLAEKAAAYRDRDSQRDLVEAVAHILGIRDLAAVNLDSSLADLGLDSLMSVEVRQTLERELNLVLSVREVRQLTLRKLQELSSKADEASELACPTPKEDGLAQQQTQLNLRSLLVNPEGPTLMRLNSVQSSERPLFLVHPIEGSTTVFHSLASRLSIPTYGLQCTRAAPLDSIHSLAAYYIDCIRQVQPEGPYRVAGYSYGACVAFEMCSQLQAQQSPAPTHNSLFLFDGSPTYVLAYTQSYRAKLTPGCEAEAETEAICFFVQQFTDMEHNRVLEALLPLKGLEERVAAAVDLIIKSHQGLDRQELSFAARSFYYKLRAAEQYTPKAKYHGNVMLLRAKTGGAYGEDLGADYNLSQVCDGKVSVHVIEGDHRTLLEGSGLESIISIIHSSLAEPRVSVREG
Chain of Large T antigen (P03070 whole entry): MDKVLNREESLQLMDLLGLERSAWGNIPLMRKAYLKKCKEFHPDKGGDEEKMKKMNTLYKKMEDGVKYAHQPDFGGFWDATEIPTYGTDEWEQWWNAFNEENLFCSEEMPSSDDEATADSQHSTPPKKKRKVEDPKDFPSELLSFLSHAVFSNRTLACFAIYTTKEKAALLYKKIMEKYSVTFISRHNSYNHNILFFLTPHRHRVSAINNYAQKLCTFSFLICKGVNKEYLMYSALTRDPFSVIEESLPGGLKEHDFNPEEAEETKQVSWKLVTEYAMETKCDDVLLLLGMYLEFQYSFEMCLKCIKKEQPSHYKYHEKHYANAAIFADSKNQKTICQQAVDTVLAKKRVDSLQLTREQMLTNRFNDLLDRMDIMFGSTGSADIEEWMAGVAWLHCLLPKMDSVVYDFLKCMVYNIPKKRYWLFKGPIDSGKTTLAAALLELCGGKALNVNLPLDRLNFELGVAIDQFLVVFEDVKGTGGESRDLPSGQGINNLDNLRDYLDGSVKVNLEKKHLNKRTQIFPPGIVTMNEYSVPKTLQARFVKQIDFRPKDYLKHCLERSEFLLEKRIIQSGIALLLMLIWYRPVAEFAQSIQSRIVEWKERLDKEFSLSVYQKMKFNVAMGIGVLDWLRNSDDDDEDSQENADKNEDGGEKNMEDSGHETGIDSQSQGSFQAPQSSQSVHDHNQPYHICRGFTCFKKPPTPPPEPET

O=C(O)C1CC(=O)N(CCOc2ccccc2)C1 (stereo not given)
IC50 [1]: > 47.1 µM (inactive) | EC50 [2]: > 53 µM (inactive)

O=C(c1cc2cc([N+](=O)[O-])ccc2s1)N1CCCCC1
IC50 [3]: 43.1 µM (not active)

C[C@@H](NC(=O)c1[nH]cnc1C(=O)N[C@@H](CCCCNC(=O)OC(C)(C)C)C(=O)OC(C)(C)C)c1ccccc1
IC50 [3]: 8.84 µM (not active)

COc1ccc(CN(C)Cc2nc3scc(-c4ccccc4)c3c(=O)[nH]2)cc1OC
IC50 [1]: > 47.1 µM (inactive) | EC50 [2]: > 53 µM (inactive)

O=C(CN1C(=O)/C(=C/c2cccc(Br)c2)SC1=S)NC1=NCCS1
IC50 [3]: > 50 µM (not active)

CCc1ccc(OCc2nnc(S)n2Cc2ccccc2)cc1
IC50 [3]: 4.01 µM (not active)

CCN(CC)c1cc2nonc2c2nonc12
IC50 (Fatty acid synthase [4]): 15.9 µM (active) | IC50 (Fatty acid synthase [5]): 19.4 µM (active)

Fc1ccc(Cn2nnnc2C(c2cccs2)N2CCCCCC2)cc1 (stereo not given)
IC50 [3]: 7.88 µM (not active)

O=c1cc(-c2ccccc2)ss1
IC50 [1]: > 47.1 µM (inactive) | EC50 [2]: > 53 µM (inactive)

O=C(Cn1cc([N+](=O)[O-])ccc1=O)NCc1ccc(Cl)cc1Cl
IC50 (Fatty acid synthase [4]): 15.8 µM (active) | IC50 (Fatty acid synthase [5]): 20.4 µM (inactive)

O=C(NC(=S)NCC1CCCO1)C(c1ccccc1)c1ccccc1 (stereo not given)
IC50 [1]: > 47.1 µM (inactive) | EC50 [2]: > 53 µM (inactive)

O=C(NCCc1ccccc1)c1ccc(Cl)nc1
EC50 [6]: 0.155 µM (inconclusive)

COc1ccc(NC(=O)Nc2nnc(C(C)(C)C)s2)cc1
IC50 [1]: > 47.1 µM (inactive) | EC50 [2]: > 53 µM (inactive)

O=C(CCNC(=O)c1ccc([N+](=O)[O-])cc1)NC1CCCCCC1
IC50 (Fatty acid synthase [4]): 8.77 µM (active) | IC50 (Fatty acid synthase [5]): 7.06 µM (active)

Cn1nc(C(=O)OCC(=O)N2CCc3ccccc32)c2ccccc2c1=O
IC50 [3]: > 50 µM (not active)

O=C(c1ccc(F)cc1Cl)N(Cc1ccco1)C1CCS(=O)(=O)C1 (stereo not given)
IC50 [1]: > 47.1 µM (inactive) | EC50 [2]: > 53 µM (inactive)

O=C(CSc1ccccn1)C12CC3CC(CC(C3)C1)C2
IC50 [3]: > 50 µM (not active)

COc1ccc2cc3cc(C(=O)N4CCCC(C)C4)oc3nc2c1 (stereo not given)
IC50 (Fatty acid synthase [4]): 6.22 µM (active) | IC50 (Fatty acid synthase [5]): 5.48 µM (active)

C/C(=N\Nc1ccccn1)c1ccc(S(=O)(=O)NCc2ccco2)cc1
IC50 (Fatty acid synthase [4]): 13.7 µM (active) | IC50 (Fatty acid synthase [5]): 10.3 µM (active)

COc1ccc(OC)c(NC(=O)COC(=O)CSc2ccc(Cl)cc2)c1
IC50 [3]: 15.5 µM (not active)

O=C(COC(=O)c1cccnc1O)NCCc1ccc(Cl)cc1Cl
EC50 [6]: 0.367 µM (active)

NC1=NC(=O)S/C1=C\c1ccc(O)cc1
IC50 (Large T antigen): 4.59 µM (active) | IC50 [1]: > 47.1 µM (inactive) | EC50 [2]: > 53 µM (inactive) | IC50 [7]: 15.7 µM (active)

COc1ccc([N+](=O)[O-])cc1/C=N/NC(=O)/C(=C\c1cccs1)NC(=O)c1ccccc1
IC50 (Fatty acid synthase [4]): 2.62 µM (active) | IC50 (Fatty acid synthase [5]): 1.97 µM (active)

CNC(=S)N/N=C/C1=CCC2CC1C2(C)C (stereo not given)
IC50 [3]: > 50 µM (not active)

COCCNC(=S)N1CCc2cc(OC)c(OC)cc2C1COc1ccc(C(C)C)cc1 (stereo not given)
IC50 [1]: > 47.1 µM (inactive) | EC50 [2]: > 53 µM (inactive)

O=C(CCC1CCCCC1)Nc1ccc(C(=O)c2ccncc2)cc1
IC50 [3]: 7.01 µM (not active)

CCN(CC)C(=O)C1CCCN(c2ccc([N+](=O)[O-])cc2/C=N/NC(=O)c2ccccc2)C1 (stereo not given)
IC50 (Fatty acid synthase [4]): 0.645 µM (active) | IC50 (Fatty acid synthase [5]): 0.846 µM (active)

O=C(Oc1ccc(Cl)c2cccnc12)C12CC3CC(CC(C3)C1)C2
IC50 [3]: 11.9 µM (not active)
